Consider two molecules from the NIST ThermoML archive (doi:10.1016/j.fluid.2006.07.005).

The nature of series [1]: Molar enthalpy of transition or fusion. Particulars: DSC.
The conditions of series [2]: DTA.

Molecules are shown by their SMILES. ± gives the expanded uncertainty stated by the source.

Consider `CCCCCCOCn1cc[n+](COCCCCCC)c1.F[B-](F)(F)F`, for which the “Molar enthalpy of transition or fusion” value in series [1] (Crystal 1) was 3.06 ± 0.12 kcal/mol; in series [1] (Crystal 2), 0.167 ± 0.0717 kcal/mol; in series [1] (Crystal 3), 0.478 ± 0.0717 kcal/mol. The Triple point temperature stood at 309.5 ± 6.2 K in series [2] (Crystal 1), 243.6 ± 4.9 K in series [2] (Crystal 2) and 142.6 ± 2.9 K in series [2] (Crystal 3).

In the case of `CCCCCCOCn1cc[n+](COCCCCCC)c1.O=S(=O)([N-]S(=O)(=O)C(F)(F)F)C(F)(F)F`, in series [1] (Crystal 1), the “Molar enthalpy of transition or fusion” value is 3.82 ± 0.12 kcal/mol. Moreover, the Triple point temperature in series [2] (Crystal 1) was 273.8 ± 5.5 K. The Glass transition temperature in series [2] (Glass) is -81.3 ± 3.9 °C.
